{
  "source": "paper PMC6220849",
  "about": "“Mechanistic and structural studies of KDM‐catalysed demethylation of histone 1 isotype 4 at lysine 26” (Febs Letters, 2018)",
  "key": {"KDM4D (KDM4D1–359)": {"tested_on": "KDM4D (KDM4D1–359)", "assay": "MALDI-TOF MS demethylation activity assay, KDM4D", "assay_type": "biochemical, human", "parameters": "key: 🟢: Indicates that clear demethylation activity was observed; 🟡: Indicates that low level demethylation activity was observed (<10% conversion after 1 h); 🔴: Indicates no activity under the stated conditions (1 μM KDM, 10 μM peptide); 🟡*: *Indicates demethylation activity was only observed with 5 μM KDM", "details": "peptide as substrate, 1 μM KDM, 10 μM peptide, 50 mM HEPES pH 7.5, Fe(II) 10 μM, ascorbate 100 μM, 2OG 200 μM, 1 h at 37 °C", "description": "(§1) Recombinant proteins (1 μM) were incubated with peptides (10 μM, sequences are given in Table S1) in 50 mM HEPES, pH 7.5 with addition of Fe(II) ammonium sulfate (10 μM), sodium ascorbate (100 μM) and 2‐oxoglutaric acid (200 μM). Reactions with KDM3A and KDM7A also contained 1 mM tris(2‐carboxyethyl)phosphine hydrochloride. No enzyme reactions were included as negative controls. Reactions were incubated for 1 h at 37 °C before being quenched with 1 : 1 (v/v) methanol. Analysis was carried out by MALDI‐TOF MS (Bruker, Billerica, MA, USA), with demethylation observed as mass shifts of 14 Da.\nGiven the activity observed with KDM4E and KDM7A, we decided to investigate the intra‐subfamily conservation of this demethylation activity. The demethylation activity of the other subfamily members (KDM4A‐D and KDM7B) was therefore screened. […] Note that as with H3K9, demethylation of the monomethylated H1.4K26 peptide was only observed with KDM4E, under the stated conditions 24."}, "KDM6B (KDM6B1141–1590)": {"tested_on": "KDM6B (KDM6B1141–1590)", "assay": "MALDI-TOF MS demethylation activity assay, KDM6B", "assay_type": "biochemical, human", "parameters": "key: 🟢: Indicates that clear demethylation activity was observed; 🟡: Indicates that low level demethylation activity was observed (<10% conversion after 1 h); 🔴: Indicates no activity under the stated conditions (1 μM KDM, 10 μM peptide); 🟡*: *Indicates demethylation activity was only observed with 5 μM KDM", "details": "peptide as substrate, 1 μM KDM, 10 μM peptide, 50 mM HEPES pH 7.5, Fe(II) 10 μM, ascorbate 100 μM, 2OG 200 μM, 1 h at 37 °C", "description": "as §1\n(§2) The propensity of human JmjC KDMs to catalyse demethylation at H1.4K26 was investigated using recombinant forms of the catalytic domains of representatives of each human JmjC KDM subfamily (KDM2‐7) and fragment peptides (Table S1) 37. Three peptides with identical sequences, corresponding to residues 18–32 of histone H1.4 (H2N‐[…]‐CONH2), but containing either a N ^ε‐tri‐, di‐ or monomethyllysine at K26 were synthesised (Fig. 1B and Table S1). Activity assays monitoring JmjC KDM‐catalysed demethylation of the peptides were then carried out; samples were prepared containing each peptide, 2‐oxoglutarate (2OG), ferrous iron, ascorbate and individual representatives from each JmjC KDM subfamily (KDM2A 38, KDM3A 21, KDM4E 22, KDM5C 39, 40, KDM6B 41, KDM7A 42)."}, "KDM7A (KDM7A38–480)": {"tested_on": "KDM7A (KDM7A38–480)", "assay": "MALDI-TOF MS demethylation activity assay, KDM7A", "assay_type": "biochemical, human", "parameters": "key to demethylation activity on methylated H1.4 peptide: 🟢: Indicates that clear demethylation activity was observed; 🟡: Indicates that low level demethylation activity was observed (<10% conversion after 1 h); 🔴: Indicates no activity under the stated conditions (1 μM KDM, 10 μM peptide); 🟡*: *Indicates demethylation activity was only observed with 5 μM KDM", "details": "peptide as substrate; MALDI-TOF MS; 1 μM KDM, 10 μM peptide, 50 mM HEPES pH 7.5, Fe(II) 10 μM, ascorbate 100 μM, 2OG 200 μM, 1 mM TCEP, 1 h at 37 °C", "description": "as §1, §2\nN ^ε‐Trimethylated H3K4 binds to the plant homeobox domain of KDM7B, targeting the N ^ε‐dimethyllysine at H3K9 to the catalytic domain, and thus promoting demethylation 29, 44. To test whether similar targeting may occur with H1.4, promoting activity at H1.4K26, an H1.4 peptide was synthesised containing di‐N ^ε‐methyllysine at K26 and tri‐N ^ε‐methyllysine at K21 (i.e. at the equivalent position in the sequence to K4 in the H3 peptide, Fig. 1B, Table S1). Monomethylation at H1.4K21 has previously been observed by proteomic mass spectrometry 45. With the aim of enhancing activity, the enzyme concentration was increased from 1 μM to 5 μM, and time course analyses were conducted with both KDM7A and KDM7B, both with the new peptide (H1.4(18–32)K21me3K26me2) and the H1.4 peptides methylated only at K26 (Fig. 2B). […] Thus, it appears unlikely that N ^ε‐trimethylation at H1.4K21 promotes demethylation at H1.4K26 by KDM7B."}, "recombinant human KDM4A": {"target": "T1, recombinant human KDM4A (Homo sapiens, UniProt O75164)", "T1 construct": "recombinantly expressed as reported either in Escherichia coli (KDM2A1–557 25, KDM4A1–359 26); His6 (N); made in house; host or cells: Escherichia coli", "T1 sequence (O75164 1-359)": "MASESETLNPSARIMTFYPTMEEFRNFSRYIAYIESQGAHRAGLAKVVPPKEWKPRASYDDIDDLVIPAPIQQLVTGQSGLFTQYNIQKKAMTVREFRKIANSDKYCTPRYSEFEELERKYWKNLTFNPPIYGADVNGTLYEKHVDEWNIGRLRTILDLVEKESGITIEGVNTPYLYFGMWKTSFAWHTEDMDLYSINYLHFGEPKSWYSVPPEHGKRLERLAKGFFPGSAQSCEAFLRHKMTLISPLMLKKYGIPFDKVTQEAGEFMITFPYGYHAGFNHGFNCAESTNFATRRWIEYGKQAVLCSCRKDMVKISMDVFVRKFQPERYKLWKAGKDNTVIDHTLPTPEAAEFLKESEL", "assay": "Formaldehyde dehydrogenase (FDH)-coupled demethylation assay, Michaelis–Menten kinetics", "assay_type": "biochemical", "details": "peptide as substrate", "description": "Kinetic parameters for KDM4 enzymes were determined by use of an FDH (formaldehyde dehydrogenase)/NAD^+‐coupled) assay for quantification of the formaldehyde reaction byproduct, as previously described 27. […] Specific activities were measured using a 100‐μM peptide. For Michaelis–Menten experiments, peptide concentrations were varied. Reactions were monitored using a PHERAstar FS plate reader (BMG Labtech, Ortenberg, Germany) with 355 nm excitation and 460 nm emission. Kinetic parameters were calculated from the reaction rate during the initial linear phase of formaldehyde production, which were used to calculate specific activities or fitted to Michaelis–Menten equations using […] PRISM (GraphPad Software, La Jolla, CA, USA).\nMichaelis–Menten kinetics were then conducted with KDM4A. Samples containing KDM4A, 2OG, ascorbate, H1.4K26me3 peptide, NAD^+ and FDH were analysed over time and kinetic parameters were determined by recording the initial reaction rates of NADH production (corresponding to enzymatic production of formaldehyde) at varying peptide concentration."}, "[1]": {"details": "concentration varied, FDH/NAD+-coupled fluorescence assay, 50 mM HEPES pH 7.5, 0.01% Tween-20, 2OG 200 μM, KDM4A, mean and standard deviation of three independent replicates, SD"}},
  "note": "Square brackets hold non-standard residues; d marks the D form. Ends that are not written are not given here. Lys(Me3) = C[N+](C)(C)CCCC[C@H](N)C(=O)O",
  "data": [
    {"substance": "TPVKKKAR[Lys(Me3)]SAGAAK [H1.4(18–32)K26me3, peptide of residues 18–32 of histone H1.4 with N ε-trimethyllysine at K26]", "values": [
      {"measurement": "demethylation activity on methylated H1.4 peptide", "setting": "KDM4D (KDM4D1–359)", "value": "🟢"},
      {"measurement": "demethylation activity on methylated H1.4 peptide", "setting": "KDM6B (KDM6B1141–1590)", "value": "🔴"},
      {"measurement": "demethylation activity on methylated H1.4 peptide", "setting": "KDM7A (KDM7A38–480)", "value": "🔴"},
      {"measurement": "K M", "setting": "recombinant human KDM4A; [1]", "value": "32.3 ± 6.4", "unit": "µM"},
      {"measurement": "k cat", "setting": "recombinant human KDM4A; [1]", "value": "0.32 ± 0.049", "unit": "s⁻¹"},
      {"measurement": "k cat/K M", "setting": "recombinant human KDM4A; FDH-coupled assay, ratio of k cat (s^−1) and K M (μM)", "value": 9800, "unit": "M⁻¹ s⁻¹"}
    ]}
  ]
}
